Patent publication US11904051B2, “Shear stress sensitive liposomes” (Universität Basel, priority 2018, dated 2024)

Legend:
Type in all cases: physicochemical
[1] = Dynamic light scattering of liposome formulations before and after SANS heating cycles; settings: for PDI, After heating / Size (hydrodynamic), After heating: after the SANS experiments (n = 3); for Size (hydrodynamic), After heating: heating to 42° C. and back, eight months after; for Size (hydrodynamic), Before heating / PDI, Before heating: before the SANS experiments (n = 5); for Size (hydrodynamic), Before heating: room temperature, D2O
Protocol: A library of artificial phospholipids was synthesised. Table 5 summarises the characterisation of the liposomal formulations concerning hydrodynamic size and polydispersity, before and after the temperature-dependent SANS measurements. The size of the DPPC and Pad-PC-Pad liposomes was (120±2) nm with a polydispersity index between 0.01 and 0.20. […] Pad-Pad-PC and Sur-PC-Sur liposomes were 400 to 1,500 nm in size with a polydispersity index of 0.57.
DLS measurements were carried out on a DelsaMax PRO (Beckman Coulter, USA) at room temperature and at a lipid concentration of 0.3 mg/mL in D2O. The data were averaged among five independent measurements before heating cycles and three measurements eight months after applying heating cycles. Data were treated with the cumulant analysis method.

[2] = Cryo-TEM of liposomal suspensions of the SANS study
Protocol: The liposomal suspensions were diluted at a ratio of 1:2 with D2O, to a final concentration of 5 mg/mL. Next, 4 μL aliquots of each suspension were adsorbed onto a holey carbon-coated grid (Lacey, Tedpella, USA), blotted with Whatman 1 filter paper and vitrified into liquid ethane at a temperature of −178° C., using a Leica GP plunger (Leica, Austria). Frozen grids were transferred onto a Talos electron microscope (Thermo Fisher, USA), using a Gatan 626 cryo-holder. Electron micrographs were recorded at an accelerating voltage of 200 kV and a nominal magnification of 45,000×, using a low-dose system (20 e^−/Å^2) and keeping the sample at liquid nitrogen temperature. Micrographs were recorded on the CETA camera. Pixel size at the sample level was (3.26 Å)^2.

[3] = Dynamic light scattering of liposomes (Delsa Nano C); settings: 25 ° C.
Protocol: The lipid concentration of the two formulations was determined using the phosphate test (Stalder and Zumbuehl. CHIMIA International Journal for Chemistry 2013, 67, 819-821). Size and size distribution of the liposomes were quantified by means of dynamic light scattering (DLS) using a Delsa Nano C (Beckman Coulter, USA). DLS measurements were performed at a temperature of 25° C., using two laser diodes working at a wavelength of 658 nm. The scattering angle was set to 165 degrees. Cryo-TEM images of Pad-PC-Pad liposomal suspension were taken by mounting the liposomal suspension on glow-discharged holey carbon grids, quickly frozen by a Cryoplunge CP3 system (Gatan, USA), and transferred to a JEM2200FS transmission electron microscope (JEOL, Japan) using a Gatan626 cryo-holder. Cryo-TEM micrographs were recorded at an acceleration voltage of 200 kV at a magnification of 20,000, 4-8 μm under-focus, and a dose of 10 electrons=Å^2, using a F416 CMOS detector (TVIPS, Germany).

[4] = Surface pressure/area per molecule isotherms of monolayers on Langmuir-Pockels trough
Protocol: The surface pressure/area per molecule isotherm measurements were carried out on a Langmuir-Pockels trough, equipped with a Wilhelmy paper balance (accuracy 0.2 mN/m), at the air-water interface. The isotherms were measured at different subphase temperatures between 5° C. and 25° C. (FIG. 2).
Above 10 C, a plateau of a mixed expanded/condensed phase transition was observed. The appearance of the plateau is accompanied by a shift of the initial lift-off area per molecule to higher values. The plateau represents the first-order phase transition from a liquid-expanded (LE) to a liquid-condensed (LC) phase. The plateau is not fully horizontal, especially it becomes steeper as the temperature increases. The monolayers themselves are stable over the measurable range of surface pressures up to an instrument-based cut-off at 51 mN/m. From the onset of the plateau it is possible to determine the temperature-dependent main transition pressure Πt. For 1,3-diheptadecanamidopropan-2-yl (2-(trimethylammonio) ethyl) phosphate this dependence can be described by a linear function (FIG. 3). The experimental data only deviates from this linear function in close vicinity of the minimum transition temperature T0 below which the transition into a condensed phase directly starts from the gas-analog state (re-sublimation process). […]

[5] = Cryo-TEM of large unilamellar vesicles made of Rad-PC-Rad; settings: 509 membrane cuts in cryo-TEM image
Protocol: The inventors measured the cryo-TEM images according to a previously described protocol (Ishikawa et al, J. Mol. Biol. 2007, 368 (5), 1249-1258). The cryo-TEM images recorded from large unilamellar vesicles (LUV) entirely made of Rad-PC-Rad, show a significant number of strongly facetted shapes below the membranes' main phase transition temperature of the membranes (Tm≈45° C.) (FIGS. 6 and 7). The ratio between facetted and spherical vesicles calculated from FIG. 6 is 21:4.
The interdigitation of the leaflets in a membrane can be directly measured from lateral cuts through the membrane in the cryo-TEM image (FIG. 6). To collect statistically relevant data, the inventors measured 509 membrane cuts (FIG. 6) with a mean membrane thickness of 3.20 nm±0.02 nm (N=509). With two times 0.7 nm for the headgroups, the hydrophobic layer is 1.8 nm thick. An all-trans alkyl chain of 16 C-atoms has a length of 2.05 nm. Thus, the alkyl chains would have a tilt angle of 64°, which is physically absurd. Therefore, a full bilayer interdigitation can be assumed.

| PDI, After heating [1] | Size (hydrodynamic), After heating [1] [nm] | Size (hydrodynamic), Before heating [1] [nm] | Size (hydrodynamic), Before heating ([1]; listed as DPPC (1)) [nm] | PDI, Before heating ([1]; listed as DPPC (1)) | mean size of liposomes derived from cryo-TEM images ([2]; after SANS heat treatment and eight months' storage) [nm] | multi-lamellar liposomes ([2]; determined by cryo-TEM) | mean diameter (DLS) [3] | polydispersity index (PDI) [3] | Size (hydrodynamic), Before heating ([1]; listed as Pad-PC-Pad (4)) [nm] | PDI, Before heating ([1]; listed as Pad-PC-Pad (4)) | diameter of flattened liposomes and/or bicelles (cryo-TEM) ([2]; heated above Tm) | average size of liposomes estimated from cryo-TEM images ([2]; not heated above transition temperature) [nm] | minimum transition temperature T0 of monolayer ([4]; air-water interface) [°C] | critical temperature of monolayers ([4]; extrapolation of ΔS to zero) [K] | mean membrane thickness [5] [nm] | DLS most probable / dominant or smaller population size [1] | PDI, Before heating [1] | Size (hydrodynamic), Before heating ([1]; listed as Rad-PC-Rad (5)) [nm] | Compound |
| --- | --- | --- | --- | --- | --- | --- | --- | --- | --- | --- | --- | --- | --- | --- | --- | --- | --- | --- | --- |
| 0.33 ± 0.02 | 600 ± 40 | 120±2 | 120 ± 2 | 0.01 ± 0.01 | 87±20 | About 16% | – | – | – | – | – | – | – | – | – | – | – | – | CCCCCCCCCCCCCCCC(=O)OC[C@H](COP(=O)([O-])OCC[N+](C)(C)C)OC(=O)CCCCCCCCCCCCCCC [DPPC, 1,2-dipalmitoyl-sn-glycero-3-phosphocholine] |
| 0.33 ± 0.04 | 53 ± 4 | 120±2 | – | – | – | – | 131.6+/−0.9 nm | 0.103+/−0.009 | 126 ± 4 | 0.19 ± 0.04 | about 50 nm | 92±14 | – | – | – | – | – | – | CCCCCCCCCCCCCCCC(=O)NCC(CNC(=O)CCCCCCCCCCCCCCC)OP(=O)([O-])OCC[N+](C)(C)C [Pad-PC-Pad, 1,3-palmitoylamido-1,3-deoxy-sn-glycero-2-phosphatidylcholine] |
| 0.32 ± 0.03 | 700 ± 100 | – | – | – | – | – | – | – | – | – | – | – | 11.2 | 306.3 | 3.20 | about 150 nm | 0.57 ± 0.01 | 150 ± 3 | CCCCCCCCCCCCCCCCC(=O)NCC(CNC(=O)CCCCCCCCCCCCCCCC)OP(=O)([O-])OCC[N+](C)(C)C [Rad-PC-Rad, 1,3-diheptadecanamidopropan-2-yl (2-(trimethylammonio)ethyl) phosphate] |
